Experimental data taken from patent publication US20080262041A1, “Beta-Lactams for Treatment of Cns Disorders” (priority 2003, published 2008).
pKi: −log10 of the molar value. Where two headings read alike, the source gives them in different places.

Key:
[1] = biological target: T1, recombinant human NK1 receptors (Homo sapiens, UniProt P25103); test: NK1 receptor binding affinity, scintillation proximity assay (SPA), displacement of [125I]Tyr8-Substance P; details: average of at least two determinations, CHO cell membranes, read-out: pKi (negative logarithm of the inhibition constant), NK1 receptor SPA binding (converted)
T1 construct: expressed in transfected cells; host or cells: CHO cells (membranes)
T1 sequence (P25103 whole entry): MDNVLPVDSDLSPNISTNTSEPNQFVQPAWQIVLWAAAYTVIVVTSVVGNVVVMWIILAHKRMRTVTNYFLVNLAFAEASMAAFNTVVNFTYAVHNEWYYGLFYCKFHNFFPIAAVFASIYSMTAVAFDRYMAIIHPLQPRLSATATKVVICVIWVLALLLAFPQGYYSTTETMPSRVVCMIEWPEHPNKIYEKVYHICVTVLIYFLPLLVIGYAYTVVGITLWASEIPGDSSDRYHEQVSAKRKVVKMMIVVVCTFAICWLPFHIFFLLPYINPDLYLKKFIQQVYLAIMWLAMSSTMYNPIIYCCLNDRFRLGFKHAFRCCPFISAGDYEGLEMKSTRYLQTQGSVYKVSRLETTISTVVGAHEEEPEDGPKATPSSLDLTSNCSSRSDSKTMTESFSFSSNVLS
From the text: NK1-receptor binding affinity has been determined in vitro in a binding Scintillation proximity assay (SPA) by measuring the compounds' ability to displace [^125I]Tyr8-Substance P (SP) from recombinant human NK1 receptors stably expressed in Chinese Hamster Ovary (CHO) cell membranes prepared by using a modification of the method described by Beattie D. T. et al. (Br. J. Pharmacol, 116:3149-3157, 1995). Briefly, polystyrene Leadseeker WGA-SPA beads (Amersham Biosciences) were mixed with cell membranes in a bead/membrane ratio of 50:1 (w/w) in assay buffer (75 mM Tris pH 7.8, 75 mM NaCl, 4 mM MnCl2, 1 mM EDTA, 0.05% Chaps, 1 mM PMSF). The mixture was placed on ice for 30 minutes to allow the formation of membrane/bead complex before BSA was added to a final concentration of 1%. After another 30 minutes incubation on ice, the bead/membrane complex was washed twice and suspended in assay buffer. [^125I]Tyr8-Substance P (2200 Ci/mmol, PerkinElmer) was then added to the bead/membrane complex with a final concentration of 0.4 nM. 30 ul of the resulting mixture was then dispensed to each well of Nalgen NUNC 384-well plate with 1 ul compound pre-dispensed in DMSO. The plates were then sealed and pulse centrifuged at 1100 rpm. After 3 hours incubation at room temperature with shaking, the plates were centrifuged for 2 min at 1100 rpm and measured in Viewlux imager (PerkinElmer) for 5 minutes with a 618-nm filter. Inhibition of [^125I]Tyr8-Substance P binding to NK1-receptors was measured by the reduction of luminescent signal. IC50 values of each compound were determined by an 11-point 3×-dilution inhibition curve. pKi values were calculated using the KD of [^125I]Tyr8-Substance P determined in a separate experiment.
The affinity of the compound of the invention for the NK1 receptor was determined using the NK1 receptor binding affinity method (Scintillation proximity assay (SPA)) measured in vitro by the compounds' ability to displace [^125I]Tyr8-Substance P (SP) from recombinant human NK1 receptors expressed in Chinese Hamster Ovary (CHO) cell membranes. The affinity values are expressed as negative logarithm of the inhibition constant (pKi) of displacer ligands.

[2] = biological target: T2, recombinant human serotonin transporter (Homo sapiens, UniProt P31645); test: hSERT binding affinity, displacement of [3H]-citalopram; details: for Ki: average of at least two determinations, [3H]-citalopram, LLCPK cell membranes, read-out: pKi, serotonin transporter binding (converted)
T2 construct: expressed in transfected cells; host or cells: porcine LLCPK cells stably transfected with hSERT (membranes)
T2 sequence (P31645 whole entry): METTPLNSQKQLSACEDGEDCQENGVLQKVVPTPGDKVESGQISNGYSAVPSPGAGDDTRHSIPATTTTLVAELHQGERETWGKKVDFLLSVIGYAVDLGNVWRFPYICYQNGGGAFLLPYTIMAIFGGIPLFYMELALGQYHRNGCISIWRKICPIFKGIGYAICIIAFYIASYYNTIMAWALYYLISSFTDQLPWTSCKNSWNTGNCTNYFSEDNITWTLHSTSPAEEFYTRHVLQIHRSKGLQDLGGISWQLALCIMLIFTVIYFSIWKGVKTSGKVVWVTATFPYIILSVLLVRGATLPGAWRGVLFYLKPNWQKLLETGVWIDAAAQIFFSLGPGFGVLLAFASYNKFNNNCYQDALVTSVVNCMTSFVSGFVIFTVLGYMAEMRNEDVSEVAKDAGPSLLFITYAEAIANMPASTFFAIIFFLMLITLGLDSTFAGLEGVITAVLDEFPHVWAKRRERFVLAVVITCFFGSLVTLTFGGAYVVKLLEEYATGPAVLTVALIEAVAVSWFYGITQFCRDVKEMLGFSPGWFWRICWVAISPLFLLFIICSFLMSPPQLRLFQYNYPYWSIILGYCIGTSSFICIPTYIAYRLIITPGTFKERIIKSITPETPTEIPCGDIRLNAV
Method: SERT binding affinity has been determined in vitro by the compounds' ability to displace [^3H]-citalopram from hSERT-LLCPK cell membranes. For the binding reaction, a final concentration of 0.25 nM of [^3H] citalopram (84 Ci/mmol, Amersham) was incubated with 3-5 μg/ml of cell membrane and the compound to be tested at different concentrations (7 concentration points in duplicate) in 50 mM Tris HCl, pH 7.7, containing 120 mM NaCl, 5 mM KCl, 10 μM pargyline and 0.1% ascorbic acid. The reaction was performed for 120 min at 22° C. and was terminated through GF/B Unifilter (pre-soaked in 0.5% PEI) using a Cell Harvester (Tomtec). Scintillation fluid was added to each filtered spot and radioactivity was determined using a scintillation counter (TopCount (Packard)). Non-specific binding was determined using paroxetine (10 μM) and represents about 2-5% of the total binding. Competition experiments were conducted with duplicate determination for each point. Msat601 software package was used to elaborate the competition binding data. IC50 values were converted to Ki values using the Cheng-Prusoff equation and by using the KD of [^3H]citalopram determined in separate experiments.
The affinity of the compounds of the invention for the serotonin transporter was determined using the hSERT binding affinity method and measuring in vitro the compounds' ability to displace [^3H]-citalopram from recombinant human serotonin transporter expressed in Porcine Epithelial Kidney LLCPK cell membranes. The affinity values are expressed as negative logarithm of the inhibition constant of displacer ligands (pKi).

Ki [2] [nM]	SMILES	Ki [1] [nM]	pKi [2]
1.26 to 9.12	CC(c1cc(Cl)cc(Cl)c1)N1CC=C(C2(c3ccc(F)cc3)CCNCC2)C1=O (single isomer, unassigned) [Example 5, 1-[1-(3,5-Dichlorophenyl)ethyl]-3-[4-(4-fluorophenyl)-4-piperidinyl]-1,5-dihydro-2H-pyrrol-2-one]	2.24 to 8.51	
	CC(c1cc(Cl)cc(Cl)c1)N1CC=C(C2(c3ccc(F)cc3)CCN(C)CC2)C1=O (single isomer, unassigned) [Example 11, 1-[1-(3,5-Dichlorophenyl)ethyl]-3-[4-(4-fluorophenyl)-1-methyl-4-piperidinyl]-1,5-dihydro-2H-pyrrol-2-one]	2.24 to 8.51	8.04 to 8.90
1.26 to 9.12	O=C1C(C2(c3ccc(F)cc3)CCNCC2)=CCN1Cc1cc(Cl)cc(Cl)c1 [Example 1, 1-[(3,5-Dichlorophenyl)methyl]-3-[4-(4-fluorophenyl)-4-piperidinyl]-1,5-dihydro-2H-Pyrrol-2-one]	2.24 to 8.51	
	CN1CCC(C2=CCN(Cc3cc(Cl)cc(Cl)c3)C2=O)(c2ccc(F)cc2)CC1 [Example 3, 1-[(3,5-Dichlorophenyl)methyl]-3-[4-(4-fluorophenyl)-1-methyl-4-piperidinyl]-1,5-dihydro-2H-pyrrol-2-one]	2.24 to 8.51	8.04 to 8.90
1.26 to 9.12	C[C@@H](c1cc(Cl)cc2ccccc12)N1CC=C(C2(c3ccc(F)cc3)CCNCC2)C1=O [Example 6, 1-[(1S)-1-(3-Chloro-1-naphthalenyl)ethyl]-3-[4-(4-fluorophenyl)-4-piperidinyl]-1,5-dihydro-2H-pyrrol-2-one]	2.24 to 8.51	
	C[C@H](c1cc(Cl)cc2ccccc12)N1CC=C(C2(c3ccc(F)cc3)CCN(C)CC2)C1=O [Example 15, 1-[(1R)-1-(3-Chloro-1-naphthalenyl)ethyl]-3-[4-(4-fluorophenyl)-1-methyl-4-piperidinyl]-1,5-dihydro-2H-pyrrol-2-one]	2.24 to 8.51	8.04 to 8.90
	CN1CCC(C2=CCN(Cc3cc(C#N)cc4ccccc34)C2=O)(c2ccc(F)cc2)CC1 [Example 16, 4-({3-[4-(4-Fluorophenyl)-1-methyl-4-piperidinyl]-2-oxo-2,5-dihydro-1H-pyrrol-1-yl}methyl)-2-naphthalenecarbonitrile]	2.24 to 8.51	8.04 to 8.90
